Literature values as cited in article PMC4008314 (Clinical cancer research : an official journal of the …, 2012).

Settings: once daily, with sorafenib and bevacizumab; cited from earlier work

Compound: O=P1(N(CCCl)CCCl)NCCCO1 (stereo not shown) [cyclophosphamide]
- recommended phase II dose: 50 mg/m^2
